Test systems include CAKI-1 renal; COLO 205 colon; HOP-62 NSCLC; MDA-MB-231 breast; OVCAR-4 ovarian; RPMI-8226 leukemia; RXF 393 renal; SK-MEL-28 melanoma; SNB-19 CNS; SW-620 colon.
Common to all, as to test: NCI-60 cell line screen, 48 h

Molecules are shown by their SMILES.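 1) Cells in 96-well plates. 2) Compound, 48 h, 5 concentrations. 3) Linear interpolation between surrounding doses. 4) Unreached endpoint = highest concentration. GI50: concentration for 50% inhibition of growth. Definition used: TGI = concentration required for complete inhibition of growth.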

In the case of `CCCN1CCC(c2ccc(Nc3nc(Nc4cc(F)ccc4C(N)=O)c4cc[nH]c4n3)c(OC)c2)CC1`, the GI50 with CAKI-1 renal was 3.16 µM; with COLO 205 colon, 0.0183 µM; in the assay with HOP-62 NSCLC it was 2.71 µM; with MDA-MB-231 breast, 4.04 µM; with OVCAR-4 ovarian, 4.1 µM; with RPMI-8226 leukemia, 3.68 µM. Moreover, the GI50 was 2.89 µM in the assay on RXF 393 renal, 4.19 µM in the assay on SK-MEL-28 melanoma, 4.15 µM with SNB-19 CNS and 0.099 µM with SW-620 colon. For the same compound, the TGI was found to be 9.56 µM with CAKI-1 renal; 1.78 µM in the assay with COLO 205 colon; 5.84 µM with HOP-62 NSCLC; 8.82 µM in the assay on MDA-MB-231 breast; 13.1 µM in the assay with OVCAR-4 ovarian; 12.1 µM with RPMI-8226 leukemia. Besides, the TGI is 6.31 µM in the assay on RXF 393 renal, 8.1 µM in the assay on SK-MEL-28 melanoma, 9.73 µM in the assay on SNB-19 CNS and 3.04 µM in the assay on SW-620 colon.

For `C/C(=N/Nc1nc(C)cc(=O)[nH]1)C(=O)O`, the TGI in the assay with CAKI-1 renal, in the assay with COLO 205 colon, in the assay with HOP-62 NSCLC, in the assay with MDA-MB-231 breast, in the assay on OVCAR-4 ovarian and in the assay on RPMI-8226 leukemia was greater than 100 µM in each case. In addition, the TGI in the assay on RXF 393 renal, with SK-MEL-28 melanoma, in the assay with SNB-19 CNS and in the assay on SW-620 colon was greater than 100 µM each time.

Consider `COc1ccc(N(C)c2nc(Cl)nc3cnn(C)c23)cc1`, for which the GI50 in the assay with CAKI-1 renal is less than 0.01 µM; in the assay with COLO 205 colon, less than 0.01 µM; in the assay with HOP-62 NSCLC, less than 0.0118 µM; with MDA-MB-231 breast it was 0.0262 µM; with OVCAR-4 ovarian, 0.0795 µM; in the assay on RPMI-8226 leukemia, less than 0.0177 µM. Moreover, the GI50 is less than 0.01 µM in the assay on RXF 393 renal, 12.8 µM in the assay on SK-MEL-28 melanoma, less than 0.0131 µM in the assay with SNB-19 CNS and less than 0.01 µM with SW-620 colon. Also, the TGI was greater than 100 µM with CAKI-1 renal; 0.058 µM in the assay on COLO 205 colon; greater than 100 µM in the assay with HOP-62 NSCLC; greater than 100 µM in the assay with MDA-MB-231 breast; greater than 100 µM with OVCAR-4 ovarian; greater than 100 µM in the assay with RPMI-8226 leukemia. The TGI in the assay on RXF 393 renal, in the assay with SK-MEL-28 melanoma, in the assay with SNB-19 CNS and in the assay on SW-620 colon was greater than 100 µM throughout.

Turning to `C=CCc1c(O)c(C(=O)/C=C/c2ccccc2)c(OC)c2ccoc12`, the GI50 was 2.8 µM in the assay with CAKI-1 renal; 5.96 µM in the assay on COLO 205 colon; 5.32 µM in the assay with HOP-62 NSCLC; 3.11 µM with MDA-MB-231 breast; 2.89 µM in the assay on OVCAR-4 ovarian; 1.88 µM with RPMI-8226 leukemia. The GI50 was 1.85 µM in the assay with RXF 393 renal, 2.49 µM in the assay with SK-MEL-28 melanoma, 2.85 µM in the assay with SNB-19 CNS and 3.32 µM in the assay on SW-620 colon. Further, the TGI was 11 µM with CAKI-1 renal; 18.1 µM with COLO 205 colon; 17.8 µM in the assay on HOP-62 NSCLC; 11.3 µM in the assay with MDA-MB-231 breast; 12.8 µM in the assay with OVCAR-4 ovarian; 6.76 µM with RPMI-8226 leukemia. The TGI turned out to be 5.62 µM in the assay with RXF 393 renal, 8.28 µM in the assay on SK-MEL-28 melanoma, 10.7 µM in the assay with SNB-19 CNS and 12.1 µM in the assay with SW-620 colon.

Take `COCc1c(-c2ccc(NC(=O)Nc3cc(C(F)(F)F)ccc3F)c(F)c2)c2c(N)ncnn2c1CN1CCOCC1`: the GI50 is 1.9 µM in the assay on CAKI-1 renal; 1.05 µM in the assay with COLO 205 colon; 2.05 µM in the assay on HOP-62 NSCLC; 1.91 µM in the assay with MDA-MB-231 breast; 1.97 µM with OVCAR-4 ovarian; 1.91 µM in the assay with RPMI-8226 leukemia. Moreover, the GI50 in the assay on RXF 393 renal is 0.236 µM; in the assay on SK-MEL-28 melanoma, 3.02 µM; with SNB-19 CNS, 2.93 µM; in the assay with SW-620 colon, 2.58 µM. For the same compound, the TGI in the assay with CAKI-1 renal was greater than 10 µM; with COLO 205 colon, 2.71 µM; in the assay with HOP-62 NSCLC, 7.1 µM; with MDA-MB-231 breast, greater than 10 µM; in the assay with OVCAR-4 ovarian it was greater than 10 µM; in the assay on RPMI-8226 leukemia, 7.85 µM. The TGI with RXF 393 renal was 1.43 µM; in the assay with SK-MEL-28 melanoma, greater than 10 µM; in the assay with SNB-19 CNS, greater than 10 µM; in the assay with SW-620 colon it was greater than 10 µM.

As to `COc1ccc2c(c1)C(=O)c1c-2c(Nc2cccc(C(C)=O)c2)nc2ccccc12`, the GI50 in the assay on CAKI-1 renal was 20.3 µM; in the assay with COLO 205 colon it was 37.9 µM; in the assay on HOP-62 NSCLC it was 0.727 µM; in the assay with MDA-MB-231 breast, 3.21 µM; with OVCAR-4 ovarian, 15.5 µM; with RPMI-8226 leukemia it was 17.5 µM. For the same compound, the GI50 in the assay with RXF 393 renal is 9.79 µM; with SK-MEL-28 melanoma, 15.1 µM; in the assay on SNB-19 CNS it was 5.99 µM; in the assay with SW-620 colon it was 21.2 µM. For the same compound, the TGI with CAKI-1 renal is 43.6 µM; in the assay on COLO 205 colon it was greater than 100 µM; in the assay with HOP-62 NSCLC it was 2.49 µM; in the assay with MDA-MB-231 breast, 12.7 µM; in the assay with OVCAR-4 ovarian, greater than 100 µM; with RPMI-8226 leukemia, 70.7 µM. The TGI in the assay on RXF 393 renal is 31.5 µM; in the assay with SK-MEL-28 melanoma, 64.6 µM; in the assay with SNB-19 CNS, 18.3 µM; in the assay with SW-620 colon it was greater than 100 µM.

As for `COCCn1cc(-c2csc(-c3c[nH]c4ccc(Br)cc34)n2)c2cccnc21`, the GI50 is 5.21 µM with CAKI-1 renal; 3.22 µM in the assay with COLO 205 colon; 7.98 µM in the assay with HOP-62 NSCLC; 2.65 µM with MDA-MB-231 breast; 2.74 µM in the assay with OVCAR-4 ovarian; 5.14 µM in the assay with RPMI-8226 leukemia. For the same compound, the GI50 is 3.3 µM in the assay on RXF 393 renal, 4.79 µM in the assay on SK-MEL-28 melanoma, 12.2 µM with SNB-19 CNS and 3.3 µM with SW-620 colon. Moreover, the TGI is greater than 100 µM in the assay on CAKI-1 renal; 34 µM with COLO 205 colon; 47.7 µM with HOP-62 NSCLC; greater than 100 µM in the assay with MDA-MB-231 breast; greater than 100 µM with OVCAR-4 ovarian; greater than 100 µM in the assay on RPMI-8226 leukemia. The TGI in the assay on RXF 393 renal is 11.2 µM; with SK-MEL-28 melanoma, greater than 100 µM; with SNB-19 CNS, greater than 100 µM; in the assay with SW-620 colon, greater than 100 µM.

The values above are taken from PubChem BioAssay (NCI).
